Experimental data from US11547681B2, “N-acylethanolamide derivatives and uses thereof” (ELIEM THERAPEUTICS, INC., priority 2016, dated 2023).
Like-named read-outs stand apart in the source and are kept apart here.

Tests used:
[1] = rat, in vivo, po
Procedure: PEA was also dosed intravenously at 1 mg/kg. Blood samples were collected up to 8 hours post-dose, and PEA and PEA-prodrug plasma concentrations were determined with a qualified LC-MS/MS method. Pharmacokinetic analysis was conducted by a non-compartmental model using Phoenix WinNonlin v.6.4 software.
The IV dosing solution was prepared fresh on the day of dosing at 0.5 mg/mL in a vehicle comprised of 10% solutol HS15, 10% n-methylpyrrolidone (NMP), 10% polyethylene glycol 400 (PEG400), and 70% water. For PO dosing, torpac capsules were loaded with an appropriate amount of PEA, PEA-prodrug, or normast powder. […] The prodrug dose in group 5 was the maximum amount of powder that would fit into a single capsule.
The pharmacokinetics of PEA and the PEA-prodrug were evaluated in fasted male Sprague-Dawley rats. Rats were housed one per cage. Each rat was fitted with a jugular vein cannula (JVC) for blood collection. Rats intended for IV dosing were fitted with an additional JVC for dosing. Each study group was dosing in triplicate. Rats were fasted for a minimum of twelve hours prior to dosing. Food was returned at four hours post dosing. Animals had free access to water throughout the study.
Blood samples (˜300 μL) were collected from the rats via a JVC and placed into chilled polypropylene tubes containing sodium heparin as an anticoagulant, and 30 μL of 0.5 M citric acid. Samples were maintained chilled throughout processing. Blood samples were centrifuged at 4° C. and 3,000 g for 5 minutes. Plasma (˜150 μL) was then transferred to a chilled, labeled polypropylene tube containing 15 μL of 10% formic acid, placed on dry ice, and stored in a freezer maintained at −60° C. to −80° C.
Pharmacokinetic parameters were determined with Phoenix WinNonlin (v6.4) software using a non-compartmental model. Maximum plasma concentrations (C0) after IV dosing were estimated by extrapolation of the first two time points back to t=0. […] Area under the time concentration curve (AUC) was calculated using the linear trapezoidal rule with calculation to the last quantifiable data point, and with extrapolation to infinity if applicable. […] Mean residence time, MRT, was calculated by dividing the area under the moment curve (AUMC) by the AUC. Clearance (CL) was calculated from dose/AUC. Steady-state volume of distribution (Vss) was calculated from CL*MRT (mean residence time). Bioavailability was determined by dividing the individual PO dose normalized AUClast values by the average IV AUClast value. Any samples below the limit of quantitation were treated as zero for pharmacokinetic data analysis.
Measured concentrations of PEA in plasma samples were corrected by subtracting the concentration of PEA measured in the pre-dose samples. […] Any corrected values that were negative are reported as not determined (ND).

[2] = Simulated intestinal fluid (SIF) stability in the presence of various enzymes; format: in vitro ADME; settings: 1 μM; for half-life at 1 μM: read-out: Half-life
Procedure: (§1) Studies were carried out in simulated intestinal fluid in the presence of various enzymes. Simulated intestinal fluid was prepared by dissolving 6.8 g of monobasic potassium phosphate in 1.0 L of water. Aliquots of this solution were taken and the pH was adjusted to 6.8. Individual enzymes were then spiked into aliquots for each experiment. A DMSO stock was first prepared for the test article. Aliquots of the DMSO solution were dosed into 700 μL of matrix, which had been pre-warmed to 37° C., at a final test article concentration of 1 μM. […] Samples were stored at 4° C. until the end of the experiment. After the final time point was sampled, the plate was mixed and then centrifuged at 3,000 rpm for 10 minutes. Calibration standards were prepared in matched matrix. […] Analytical conditions are outlined in Appendix 8-1.
as §1, with “10-1.” for “8-1.”
Studies were carried out in simulated intestinal fluid in the presence of various enzymes. Simulated intestinal fluid was prepared by dissolving 6.8 g of monobasic potassium phosphate in 1.0 L of water. Aliquots of this solution were taken and the pH was adjusted to 6.8. Individual enzymes were then spiked into aliquots for each experiment. A DMSO stock was first prepared for test article. Aliquots of the DMSO solution were dosed into 700 μL of matrix, which had been pre-warmed to 37° C., at a final test article concentration of 1 μM. […] Samples were stored at 4° C. until the end of experiment. After final time point was sampled, the plate was mixed and then centrifuged at 3,000 rpm for 10 minutes. Calibration standards were prepared in matched matrix. […] Analytical conditions are outlined in Appendix 13-1.
as §1, with “17-1.” for “8-1.”

[3] = Summary of half life data (Table A), matrix not stated; format: in vitro ADME
[4] = SIF + Carboxypeptidase A, 0 min
[5] = SIF + Carboxypeptidase A, 15 min
[6] = SIF + Carboxypeptidase A, 30 min
[7] = SIF + Carboxypeptidase A, 60 min
[8] = SIF + Carboxypeptidase A, 120 min
[9] = SIF + Carboxypeptidase B, 0 min
[10] = SIF + Carboxypeptidase B, 15 min
[11] = SIF + Carboxypeptidase B, 30 min
[12] = SIF + Carboxypeptidase B, 60 min
[13] = SIF + Carboxypeptidase B, 120 min
[14] = simulated intestinal fluid with carboxypeptidase A, pH 6.8, SIF + Carboxypeptidase A
[15] = simulated intestinal fluid with carboxypeptidase B, pH 6.8, SIF + Carboxypeptidase B
[16] = simulated intestinal fluid with chymotrypsin, pH 6.8, SIF + Chymotrypsin
[17] = simulated intestinal fluid with elastase, pH 6.8, SIF + Elastase
[18] = simulated intestinal fluid with pancreatin, pH 6.8, SIF + Pancreatin
[19] = simulated intestinal fluid with trypsin, pH 6.8, SIF + Trypsin

% Remaining of Initial (n = 1) [2, 4]	% Remaining of Initial (n = 1) [2, 5]	% Remaining of Initial (n = 1) [2, 6]	% Remaining of Initial (n = 1) [2, 7]	% Remaining of Initial (n = 1) [2, 8]	% Remaining of Initial (n = 1) [2, 9]	% Remaining of Initial (n = 1) [2, 10]	% Remaining of Initial (n = 1) [2, 11]	% Remaining of Initial (n = 1) [2, 12]	% Remaining of Initial (n = 1) [2, 13]	% Remaining of Initial (n = 1) ([2]; SIF + Chymotrypsin, 0 min)	% Remaining of Initial (n = 1) ([2]; SIF + Chymotrypsin, 15 min)	% Remaining of Initial (n = 1) ([2]; SIF + Chymotrypsin, 30 min)	% Remaining of Initial (n = 1) ([2]; SIF + Chymotrypsin, 60 min)	% Remaining of Initial (n = 1) ([2]; SIF + Chymotrypsin, 120 min)	% Remaining of Initial (n = 1) ([2]; SIF + Elastase, 0 min)	% Remaining of Initial (n = 1) ([2]; SIF + Elastase, 15 min)	% Remaining of Initial (n = 1) ([2]; SIF + Elastase, 30 min)	% Remaining of Initial (n = 1) ([2]; SIF + Elastase, 60 min)	% Remaining of Initial (n = 1) ([2]; SIF + Elastase, 120 min)	other results	Structure (SMILES)
100%	43%	15%	10%	5.5%	100%	44%	14%	6.1%	4.7%	100%	45%	24%	11%	7.2%	100%	49%	22%	10%	6.3%	PEA-prodrug in plasma samples [1]: not detectable; % Remaining of Initial (n = 1) ([2]; SIF + Pancreatin, 0 min): 100%; % Remaining of Initial (n = 1) ([2]; SIF + Pancreatin, 15 min): 35%; % Remaining of Initial (n = 1) ([2]; SIF + Pancreatin, 30 min): 34%; % Remaining of Initial (n = 1) ([2]; SIF + Pancreatin, 60 min): 20%; % Remaining of Initial (n = 1) ([2]; SIF + Pancreatin, 120 min): 13%; % Remaining of Initial (n = 1) ([2]; SIF + Trypsin, 0 min): 100%; % Remaining of Initial (n = 1) ([2]; SIF + Trypsin, 15 min): 67%; % Remaining of Initial (n = 1) ([2]; SIF + Trypsin, 30 min): 49%; % Remaining of Initial (n = 1) ([2]; SIF + Trypsin, 60 min): 22%; % Remaining of Initial (n = 1) ([2]; SIF + Trypsin, 120 min): 12%; half-life at 1 μM [2, 14]: 12 min; half-life at 1 μM [2, 15]: 12 min; half-life at 1 μM [2, 16]: 14 min; half-life at 1 μM [2, 17]: 15 min; half-life at 1 μM [2, 18]: 17 min; half-life at 1 μM [2, 19]: 29 min	CCCCCCCCCCCCCCCC(=O)NCCOC(=O)CCC(=O)OCC(O)CO (stereo not drawn) [Compound I-9]
100%	73%	78%	42%	18%	100%	68%	50%	33%	9.6%	100%	84%	63%	42%	21%	100%	70%	50%	33%	17%	Bioavailability ([1]; male, Sprague-Dawley): 4.5%; half-life [3]: < 1 min; % Remaining of Initial (n = 1) ([2]; SIF + Pancreatin, 0 min): 100%; % Remaining of Initial (n = 1) ([2]; SIF + Pancreatin, 15 min): <1.0%; % Remaining of Initial (n = 1) ([2]; SIF + Pancreatin, 30 min): <1.0%; % Remaining of Initial (n = 1) ([2]; SIF + Pancreatin, 60 min): <1.0%; % Remaining of Initial (n = 1) ([2]; SIF + Pancreatin, 120 min): <1.0%; % Remaining of Initial (n = 1) ([2]; SIF + Trypsin, 0 min): 100%; % Remaining of Initial (n = 1) ([2]; SIF + Trypsin, 15 min): 77%; % Remaining of Initial (n = 1) ([2]; SIF + Trypsin, 30 min): 62%; % Remaining of Initial (n = 1) ([2]; SIF + Trypsin, 60 min): 45%; % Remaining of Initial (n = 1) ([2]; SIF + Trypsin, 120 min): 23%; half-life at 1 μM [2, 14]: 53 min; half-life at 1 μM [2, 15]: 34 min; half-life at 1 μM [2, 16]: 50 min; half-life at 1 μM [2, 17]: 37 min; half-life at 1 μM [2, 18]: < 1 min; half-life at 1 μM [2, 19]: 53 min	CCCCCCCCCCCCCCCC(=O)NCCOC(=O)CCC(=O)OCC(COC(=O)CCC)OC(=O)CCC (stereo not drawn) [Compound I-11]
